Reference: the NIST ThermoML archive (doi:10.1021/acs.jced.7b00335)

Test: xn = mol fraction of the nth substance listed
Conditions: 100 kPa, Liquid; for viscosity: Concentric cylinders viscometry; for mass density: Vibrating tube method

O=Cc1ccccc1 [benzaldehyde] + CC(C)O
Conditions	mass density [kg/m3]	viscosity [mPa·s]
293.15 K, x1 = 0.0809	809.6	2.11
293.15 K, x1 = 0.1596	830.7	1.86
293.15 K, x1 = 0.24	852.5	1.675
293.15 K, x1 = 0.3492	882.3	1.499
293.15 K, x1 = 0.4399	906.4	1.42
293.15 K, x1 = 0.5693	940.8	1.402
293.15 K, x1 = 0.6495	962.2	1.414
293.15 K, x1 = 0.7399	986.2	1.434
293.15 K, x1 = 0.8498	1012.8	1.47
293.15 K, x1 = 0.9399	1033.3	1.502
293.15 K, x1 = 1	1046.3	1.52
298.15 K, x1 = 0.0809	804.3	1.82
298.15 K, x1 = 0.1596	826.4	1.63
298.15 K, x1 = 0.24	848.2	1.47
298.15 K, x1 = 0.3492	877.9	1.342
298.15 K, x1 = 0.4399	901.9	1.296
298.15 K, x1 = 0.5693	936.2	1.284
298.15 K, x1 = 0.6495	957.6	1.298
298.15 K, x1 = 0.7399	981.7	1.318
298.15 K, x1 = 0.8498	1008	1.354
298.15 K, x1 = 0.9399	1029	1.385
298.15 K, x1 = 1	1041.7	1.41
303.15 K, x1 = 0.0809	799.9	1.59
303.15 K, x1 = 0.1596	821.8	1.43
303.15 K, x1 = 0.24	843.7	1.33
303.15 K, x1 = 0.3492	873.4	1.233
303.15 K, x1 = 0.4399	897.4	1.197
303.15 K, x1 = 0.5693	931.7	1.187
303.15 K, x1 = 0.6495	953.1	1.196
303.15 K, x1 = 0.7399	976.7	1.216
303.15 K, x1 = 0.8498	1004.1	1.252
303.15 K, x1 = 0.9399	1024.1	1.286
303.15 K, x1 = 1	1037.1	1.31
308.15 K, x1 = 0.0809	795.6	1.41
308.15 K, x1 = 0.1596	817.6	1.29
308.15 K, x1 = 0.24	839.2	1.2
308.15 K, x1 = 0.3492	868.8	1.126
308.15 K, x1 = 0.4399	892.9	1.1
308.15 K, x1 = 0.5693	927.2	1.098
308.15 K, x1 = 0.6495	948.6	1.109
308.15 K, x1 = 0.7399	972.6	1.131
308.15 K, x1 = 0.8498	999.3	1.163
308.15 K, x1 = 0.9399	1019.7	1.197
308.15 K, x1 = 1	1032.4	1.22
313.15 K, x1 = 0.0809	791	1.23
313.15 K, x1 = 0.1596	813	1.14
313.15 K, x1 = 0.24	834.8	1.08
313.15 K, x1 = 0.3492	864.4	1.03
313.15 K, x1 = 0.4399	888.3	1.011
313.15 K, x1 = 0.5693	922.6	1.018
313.15 K, x1 = 0.6495	944	1.032
313.15 K, x1 = 0.7399	967	1.051
313.15 K, x1 = 0.8498	994.1	1.093
313.15 K, x1 = 0.9399	1014.6	1.124
313.15 K, x1 = 1	1027.9	1.15
318.15 K, x1 = 0.0809	786.7	1.08
318.15 K, x1 = 0.1596	808.6	1
318.15 K, x1 = 0.24	830.3	0.95
318.15 K, x1 = 0.3492	859.8	0.918
318.15 K, x1 = 0.4399	883.7	0.909
318.15 K, x1 = 0.5693	918	0.916
318.15 K, x1 = 0.6495	939.4	0.933
318.15 K, x1 = 0.7399	963.2	0.967
318.15 K, x1 = 0.8498	989.7	1.015
318.15 K, x1 = 0.9399	1010.8	1.058
318.15 K, x1 = 1	1023.4	1.09
323.15 K, x1 = 0.0809	782	0.97
323.15 K, x1 = 0.1596	803.7	0.913
323.15 K, x1 = 0.24	825.6	0.873
323.15 K, x1 = 0.3492	855.1	0.848
323.15 K, x1 = 0.4399	879.1	0.84
323.15 K, x1 = 0.5693	913.4	0.844
323.15 K, x1 = 0.6495	934.9	0.863
323.15 K, x1 = 0.7399	958.9	0.892
323.15 K, x1 = 0.8498	985	0.943
323.15 K, x1 = 0.9399	1006	0.991
323.15 K, x1 = 1	1019.1	1.03

O=Cc1ccccc1 [benzaldehyde] + CCC(C)O
Conditions	mass density [kg/m3]	viscosity [mPa·s]
293.15 K, x1 = 0.0813	824.7	3.08
293.15 K, x1 = 0.1623	842.8	2.62
293.15 K, x1 = 0.2401	860.9	2.3
293.15 K, x1 = 0.3517	886.9	1.97
293.15 K, x1 = 0.4404	908.4	1.791
293.15 K, x1 = 0.5612	938.1	1.648
293.15 K, x1 = 0.6519	961	1.576
293.15 K, x1 = 0.7423	984.4	1.528
293.15 K, x1 = 0.8511	1012.1	1.506
293.15 K, x1 = 0.94	1032.5	1.511
293.15 K, x1 = 1	1046.3	1.52
298.15 K, x1 = 0.0813	821.2	2.65
298.15 K, x1 = 0.1623	839.5	2.31
298.15 K, x1 = 0.2401	857.3	2.027
298.15 K, x1 = 0.3517	883.2	1.75
298.15 K, x1 = 0.4404	905.3	1.61
298.15 K, x1 = 0.5612	934.6	1.487
298.15 K, x1 = 0.6519	957.6	1.426
298.15 K, x1 = 0.7423	980.2	1.39
298.15 K, x1 = 0.8511	1007.3	1.38
298.15 K, x1 = 0.94	1028.6	1.39
298.15 K, x1 = 1	1041.7	1.41
303.15 K, x1 = 0.0813	816.3	2.23
303.15 K, x1 = 0.1623	834.1	1.984
303.15 K, x1 = 0.2401	852.4	1.78
303.15 K, x1 = 0.3517	878.1	1.561
303.15 K, x1 = 0.4404	899.7	1.438
303.15 K, x1 = 0.5612	929.2	1.322
303.15 K, x1 = 0.6519	952.1	1.279
303.15 K, x1 = 0.7423	975.7	1.255
303.15 K, x1 = 0.8511	1002.1	1.255
303.15 K, x1 = 0.94	1023.2	1.277
303.15 K, x1 = 1	1037.1	1.31
308.15 K, x1 = 0.0813	812.3	1.897
308.15 K, x1 = 0.1623	829.9	1.7
308.15 K, x1 = 0.2401	848.1	1.55
308.15 K, x1 = 0.3517	873.9	1.383
308.15 K, x1 = 0.4404	895.3	1.284
308.15 K, x1 = 0.5612	924.7	1.194
308.15 K, x1 = 0.6519	947.6	1.156
308.15 K, x1 = 0.7423	971.1	1.139
308.15 K, x1 = 0.8511	997	1.149
308.15 K, x1 = 0.94	1019	1.182
308.15 K, x1 = 1	1032.4	1.22
313.15 K, x1 = 0.0813	807.8	1.636
313.15 K, x1 = 0.1623	825.5	1.49
313.15 K, x1 = 0.2401	843.7	1.366
313.15 K, x1 = 0.3517	869.3	1.23
313.15 K, x1 = 0.4404	890.8	1.146
313.15 K, x1 = 0.5612	920.3	1.079
313.15 K, x1 = 0.6519	944.4	1.05
313.15 K, x1 = 0.7423	966.7	1.038
313.15 K, x1 = 0.8511	993.4	1.057
313.15 K, x1 = 0.94	1014.1	1.1
313.15 K, x1 = 1	1027.9	1.15
318.15 K, x1 = 0.0813	803	1.388
318.15 K, x1 = 0.1623	820.8	1.265
318.15 K, x1 = 0.2401	839	1.172
318.15 K, x1 = 0.3517	864.6	1.068
318.15 K, x1 = 0.4404	886.1	1.01
318.15 K, x1 = 0.5612	915.7	0.966
318.15 K, x1 = 0.6519	940	0.95
318.15 K, x1 = 0.7423	962.1	0.948
318.15 K, x1 = 0.8511	987.7	0.979
318.15 K, x1 = 0.94	1009.3	1.026
318.15 K, x1 = 1	1023.4	1.09
323.15 K, x1 = 0.0813	798.9	1.215
323.15 K, x1 = 0.1623	816.4	1.128
323.15 K, x1 = 0.2401	834.6	1.056
323.15 K, x1 = 0.3517	860	0.977
323.15 K, x1 = 0.4404	881.5	0.932
323.15 K, x1 = 0.5612	911	0.895
323.15 K, x1 = 0.6519	933.9	0.882
323.15 K, x1 = 0.7423	956	0.887
323.15 K, x1 = 0.8511	982.1	0.913
323.15 K, x1 = 0.94	1003.9	0.962
323.15 K, x1 = 1	1019.1	1.03
